Measurements reported in patent publication US8993256B2, “Fusion proteins and polynucleotide constructs to measure protein turn-over” (priority 2006, dated 2015).

Legend:
[1] = biological target: HSV-TimeSTAMPt-HA-dCaMKII (Hepatitis C virus genotype 1a, UniProt P27958); assay type: in vivo, Drosophila melanogaster; conditions: adult flies, brains analyzed 6 hours after BILN-2061
Description: Homozyous transformed lines were established from single progeny of embryos injected with pUAST-HSV-TimeSTAMPt-HA-dCaMKII or pUAST-HSV-TimeSTAMPa-HA-dCaMKII. […] Male homozygotes with third-chromosome insertions were crossed to elav-GAL4; UAS-tubulin-GFP; + females, and the male elavGAL4/Y; UAS-tubulin-GFP/+; HSV-TimeSTAMP-HA-dCaMKII/+ progeny were used for experiments within 2 days post-eclosion.
For experiments involving HSV-TimeSTAMPt-HA-dCaMKII, flies were anesthesized by carbon dioxide, then a hole was punctured in the medial ocellus region using a glass micropipette with a 10 μm bore and a 25 nL drop of 2 mM BILN-2061 in 20% DMSO 5% Cremophor EL in Hank's buffered saline solution (HBSS) was placed over the region. […] For HSV-TimeSTAMPa-HA-dCaMKII, flies were starved for 12 hours with only water, then placed in a vial with an emulsion of 30% (w/v) yeast, 30% (v/v) glycerol, 30% (v/v) water, 5% green food coloring, 5% dimethylformamide, and 500 μM BILN-2061. […] For analysis, flies were decapitated and brains were simultaneously dissected and fixed in HBSS with 4% paraformaldehyde and 0.2% Triton X-100 for 40 minutes at room temperature. Brains were processed for immunocytochemistry by standard methods and imaged on a Zeiss LSM510 or LSM5Live confocal microscope.
Transgenic flies were generated expressing this fusion protein in all neurons.

[2] = biological target: HCV NS3 protease (Hepatitis C virus genotype 1a, UniProt P27958); assay type: cell-based; conditions: TimeSTAMPt; hippocampal neurons 18 DIV, 9 DPT
Description: (§1) Hippocampal neurons were dissected from postnatal day 0 or 1 rat pups and cultured in Neurobasal medium supplemented with B27 and glutamine. For immunoblotting experiments, neurons were transfected prior to plating using the Amaxa Nucleofector protocol. For other experiments, neurons were transfected at 7-10 DIV by calcium phosphate.
(§2) To recapitulate endogenous mechanisms of mRNA localization and translation, the 5′ and 3′ untranslated regions of each gene were included in all constructs.

[3] = biological target: HCV NS3 protease (Hepatitis C virus genotype 1a, UniProt P27958, T1080A); assay type: cell-based; conditions: TimeSTAMPa; hippocampal neurons 18 DIV, 9 DPT
Description: as §1, §2

[4] = tested on: HCV NS3 protease; assay type: cell-based, hepatitis C virus; conditions: HEK293 cells grown with or without BILN-2061 (0, 1 μM, or 10 μM)
Description: For testing of the drug-regulatable epitope tag concept by immunoblotting, a construct of linear fusions of PSD-95, HCV NS3 protease flanked on both sides by cleavage sites, an HA epitope tag, and the cyan fluorescent protein (CFP) was used.
For each construct, HEK293 cells were transfected with Lipofectamine 2000, grown with or without the NS3 protease inhibitor BILN-2061 (Lamarre et al., 2003), and immunoblotted after boiling/SDS lysis with anti-PSD-95 to differentiate uncleaved and cleaved products by molecular weight.
Experiments using the constructs of the disclosure were performed in transiently transfected mammalian cells by immunoblotting.

[5] = tested on: new protein synthesis in neurons; assay: Dependence of TimeSTAMP tag appearance on new protein synthesis in neurons; assay type: cell-based, rat; conditions: for HA-tagged Arc appearing after incubation in 10 μM BILN for 6 hours: Arc-TimeSTAMPa-HA neurons, 7 DIV, simultaneous treatment (cycloheximide 50 μg/mL or BDNF)
Description: as §1, §2

HCV NS3 protease (Hepatitis C virus genotype 1a, UniProt P27958), sequence (P27958 1027-1208): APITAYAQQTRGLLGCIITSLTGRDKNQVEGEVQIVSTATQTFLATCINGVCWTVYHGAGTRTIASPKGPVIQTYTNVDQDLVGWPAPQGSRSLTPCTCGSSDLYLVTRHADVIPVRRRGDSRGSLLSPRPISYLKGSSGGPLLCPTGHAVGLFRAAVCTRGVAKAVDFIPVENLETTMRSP
HSV-TimeSTAMPt-HA-dCaMKII, sequence (P27958 1027-1208): as above
HCV NS3 protease (Hepatitis C virus genotype 1a, UniProt P27958, T1080A), sequence (P27958 1027-1208 T1080A): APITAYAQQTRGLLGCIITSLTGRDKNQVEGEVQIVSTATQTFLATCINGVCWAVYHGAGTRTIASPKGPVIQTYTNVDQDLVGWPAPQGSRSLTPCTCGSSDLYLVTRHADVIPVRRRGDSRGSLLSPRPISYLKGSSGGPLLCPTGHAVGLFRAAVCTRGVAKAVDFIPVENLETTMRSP

COc1ccc2c(O[C@@H]3C[C@H]4C(=O)N[C@]5(C(=O)O)C[C@H]5/C=C\CCCCC[C@H](NC(=O)OC5CCCC5)C(=O)N4C3)cc(-c3csc(NC(C)C)n3)nc2c1 [BILN-2061]
HSV labelling for newly synthesized dCaMKII in fly brain [1]: HSV labelling for newly synthesized dCaMKII is present in the mushroom bodies
HA immunofluorescence induction [2]: 121 fold
HA immunofluorescence induction [3]: 20 fold
Cleavage of constructs containing the NS3 domain alone without NS4A cofactor (immunoblot) [4]: inhibited

C[C@@H]1C[C@@H]([C@H](O)CC2CC(=O)NC(=O)C2)C(=O)[C@@H](C)C1 [cycloheximide]
Synaptic HA staining of PSD-95-GFP-TimeSTAMPa-HA after 6 hours of BILN-2061 ([5]; 50 μg/mL cycloheximide, 18 DIV neurons, 9 DPT): No staining
HA-tagged Arc appearing after incubation in 10 μM BILN for 6 hours [5]: blocked

B1: BDNF: growth factor used for translational induction (protein, UniProt P23560 19-247, looked up)
Neurotrophic factor BDNF …: APMKEANIRGQGGLAYPGVRTHGTLESVNGPKAGSRGLTSLADTFEHVIEELLDEDQKVRPNEENNKDADLYTSRVMLSSQVPLEPPLLFLLEEYKNYLDAANMSMRVRRHSDPARRGELSVCDSISEWVTAADKKTAVDMSGGTVTVLEKVPVSKGQLKQYFYETKCNPMGYTKEGCRGIDKRHWNSQCRTTQSYVRALTMDSKKRIGWRFIRIDTSCVCTLTIKRGR
HA-tagged Arc appearing after incubation in 10 μM BILN for 6 hours [5]: increased
